Measurements from publication PMC12881674, “Activation of TRPV3 channels in bladder cancer cells stimulates ATP release” (Molecular Pharmacology, 2025).

Target: T1, human TRPA1 (Homo sapiens, UniProt O75762)
T1 construct: expressed in transfected cells; host or cells: HEK293
Experiment: fluo-4 Ca2+ assay selectivity, HEK cells expressing human TRPA1
Type: cell-based
From the text: KU-19-19 (DSMZ no. ACC 395), CAL-29 (DSMZ no. ACC 515), 647-V (DSMZ no. ACC 414), RT-4 (DSMZ no. ACC 412), and RT-112 (DSMZ no. ACC 418) bladder cancer cell lines were obtained from the Leibniz Institute DSMZ (German Collection of Microorganisms and Cell Cultures). Human TRPV3 (NM_145068, purchased from OriGene) and mouse TRPV3 (NM_001371006), rat TRPV1, mouse TRPV2, mouse TRPV4, human TRPM2, human TRPM8, and human TRPA1 were stably transfected in HEK293 cells as described before.[27] […]
All fluorometric Ca^2+ assays were performed in HBS buffer at room temperature. […] For the primary compound screening and the generation of concentration-response analyses, a robotic liquid handling station (Freedom Evo 150; Tecan) with a built-in custom-made fluorescence plate imager was used. […] Fluorescence was excited using a 470-nm light-emitting diode, and emitted light was imaged through a 515-nm–long pass filter with a cooled Zyla 5.5 camera (Andor). Fluorescence was recorded and processed under the control of the μ-Manager 2.0 gamma software (https://micro-manager.org.[28]). After recording baseline fluorescence, compounds were dispensed into the wells via the liquid handling device. […] For further analysis, fluorescence signals were calculated for each well, corrected for background intensities and normalized to the initial signals. […]

T1 sequence (O75762 whole entry): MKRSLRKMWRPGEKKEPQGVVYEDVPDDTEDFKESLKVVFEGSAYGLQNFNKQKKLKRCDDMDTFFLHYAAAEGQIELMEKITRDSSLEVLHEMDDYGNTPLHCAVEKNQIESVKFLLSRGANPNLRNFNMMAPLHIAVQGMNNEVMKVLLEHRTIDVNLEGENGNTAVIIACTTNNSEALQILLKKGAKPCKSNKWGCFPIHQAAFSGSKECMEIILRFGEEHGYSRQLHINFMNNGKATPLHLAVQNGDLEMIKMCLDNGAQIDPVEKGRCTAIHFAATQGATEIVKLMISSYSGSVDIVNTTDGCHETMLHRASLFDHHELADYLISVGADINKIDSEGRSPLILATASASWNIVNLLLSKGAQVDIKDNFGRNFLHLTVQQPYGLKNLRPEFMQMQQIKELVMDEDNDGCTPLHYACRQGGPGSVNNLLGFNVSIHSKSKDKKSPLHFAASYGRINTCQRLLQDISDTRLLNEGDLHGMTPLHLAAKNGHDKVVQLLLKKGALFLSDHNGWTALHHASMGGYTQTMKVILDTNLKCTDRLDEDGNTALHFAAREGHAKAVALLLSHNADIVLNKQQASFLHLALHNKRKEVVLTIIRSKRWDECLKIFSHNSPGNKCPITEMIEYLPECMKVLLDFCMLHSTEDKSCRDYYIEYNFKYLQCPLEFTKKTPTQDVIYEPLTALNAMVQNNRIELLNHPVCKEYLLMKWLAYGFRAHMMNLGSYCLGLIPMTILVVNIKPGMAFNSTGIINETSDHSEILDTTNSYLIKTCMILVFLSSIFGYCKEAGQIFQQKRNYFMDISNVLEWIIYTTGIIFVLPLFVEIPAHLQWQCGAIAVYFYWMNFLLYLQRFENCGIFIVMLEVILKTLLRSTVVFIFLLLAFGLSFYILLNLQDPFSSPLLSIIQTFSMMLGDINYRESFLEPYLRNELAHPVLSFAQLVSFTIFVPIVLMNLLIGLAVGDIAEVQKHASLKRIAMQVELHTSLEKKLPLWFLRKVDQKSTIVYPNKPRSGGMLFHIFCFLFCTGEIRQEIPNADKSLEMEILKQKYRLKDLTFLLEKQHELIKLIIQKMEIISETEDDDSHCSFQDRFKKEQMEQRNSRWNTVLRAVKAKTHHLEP

effect on TRPA1: activates
SMILES: COC(=O)C12CN(Cc3ccccc3)CC1(C(=O)OC)CN(Cc1ccccc1)C2 (stereo not shown) [AV3-1]
